Literature values, collected in patent US20100136125A1, “METHOD OF TREATING INFLAMMATORY BOWEL DISEASE” (Jacobus Pharmaceutical Company, Inc., priority 2006, published 2010).
Like-named read-outs stand apart in the source and are kept apart here.

Columns and labels:
[1] = biological target: T1, thiopurine methyltransferase (TPMT) (Homo sapiens, UniProt P51580); conditions: in vitro kinetic studies; read-out: IC50, non-competitive inhibition of TPMT
T1 sequence (P51580 1-245): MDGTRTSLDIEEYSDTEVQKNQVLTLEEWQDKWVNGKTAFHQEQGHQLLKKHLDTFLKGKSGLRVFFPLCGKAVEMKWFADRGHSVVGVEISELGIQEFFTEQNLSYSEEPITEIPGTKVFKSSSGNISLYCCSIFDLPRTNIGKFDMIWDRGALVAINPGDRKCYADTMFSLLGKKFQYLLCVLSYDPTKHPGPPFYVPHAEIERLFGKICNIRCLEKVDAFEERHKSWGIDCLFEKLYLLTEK

[2] = tested on: tuberculosis
[3] = tested on: distal ulcerative colitis; conditions: enema 2 g bid, open-label
[4] = in vivo
[5] = tested on: active left-sided ulcerative colitis; conditions: 2 gram nightly retention enema, p<0.005 vs placebo
[6] = tested on: ulcerative colitis; conditions: topical
[7] = tested on: quiescent Crohn's ileocolitis; conditions: 1.5 g/d slow release, maintenance therapy
[8] = children, 300 mg/kg/day in 5 equal doses
[9] = not given; remark: listed apart in the source
[10] = tested on: Crohn's disease; conditions: in vivo
[11] = tested on: Crohn's disease
[12] = dose 4.0 gm PASER, 2.6-2.8 gm salts

Nc1cccc(C(=O)O)c1O [3-ASA]
IC50 [1]: 99 µM

Nc1ccc(C(=O)O)c(O)c1 [4-ASA, 4-aminosalicylic acid]
MIC ([2]; bacteriostatic): under 2 μg/ml | participants with complete resolution of symptoms and sigmoidoscopic abnormalities by 8 weeks [3]: 46% | additional participants experiencing improvement ([3]; 8 weeks): 31% | half-life [4]: 50 min | significant improvement in clinical, sigmoidoscopic and histologic variables after 8 weeks [5]: 83% | clinical improvement within 2 weeks [6]: 79% | histologic improvement within 2 weeks [6]: 44% | sigmoidoscopic improvement within 2 weeks [6]: 78% | excreted in the urine (in vivo): ≤ 80% | half-life of free 4-ASA (renal disease): 30.8 min | dosage excreted in acetylated form (urine): ≥ 50% | half-life of free 4-ASA (without renal disease): 26.4 min | IC50 [1]: 2600 µM | relapse rate after one year [7]: 36% | serum level after 4 hours [8]: 2-2.5 mg percent | serum level of 4-ASA 60 minutes after oral solution [8]: ≤ 120 micrograms/ml

Nc1ccc(O)c(C(=O)O)c1 [5-ASA, 5-aminosalicylic acid]
anti-tuberculous activity [2]: no anti-tuberculous activity | clinical improvement within 2 weeks [6]: 79% | histologic improvement within 2 weeks [6]: 44% | sigmoidoscopic improvement within 2 weeks [6]: 78% | IC50 [1]: 1240 µM | relapse rate after one year [7]: 38%

Nc1ccc(C(=O)O)c([O-])c1.Nc1ccc(C(=O)O)c([O-])c1.[Ca+2] [Ca++ PAS]
AOC0-∞ ([9]; in vivo): 326.83 µg·h/mL | Cmax ([9]; in vivo): 139.51 µg/mL | Tmax ([9]; in vivo): 61.2 min

Nc1ccc(C(=O)[O-])c(O)c1.[K+] [K+ PAS]
AOC0-∞ [9, 12]: 313.22 µg·h/mL | Cmax [9, 12]: 121.09 µg/mL | Tmax [9, 12]: 66 min

Nc1ccc(C(=O)[O-])c(O)c1.[Na+] [Na+ PAS]
AOC0-∞ ([9]; in vivo): 313.22 µg·h/mL | Cmax ([9]; in vivo): 155.44 µg/mL | Tmax ([9]; in vivo): 49.8 min

O=C(O)c1cc(/N=N/c2ccc(S(=O)(=O)Nc3ccccn3)cc2)ccc1O [sulfasalazine]
IC50 [1]: 78 µM

Acetyl-para-aminosalicylate [Ac-PAS]
half-life of the acetylated metabolite (normals): 51 min | half-life of the acetylated metabolite (uremic patients): 309 min

granulocyte-macrophage stimulating factor: granulocyte-macrophage stimulating factor studied in active Crohn's disease
time by which significant clinical activity is demonstrated [10]: ≤ 15 days

infliximab: TNF antagonist, chimeric monoclonal antibody cA2 to tumor necrosis factor α
remission rate ([11]; at 4 weeks): 33% | response rate ([11]; at 4 weeks): 65% | remission (CDAI<150 and IBDQ>170-190) ([11]; by two weeks): 27% | response (decrease in CDAI≧70 points) ([11]; by two weeks): 61%
